{"source": "paper PMC10643420", "about": "“A glutamate-gated chloride channel as the mite-specific target-site of dicofol and other diphenylcarbinol acaricides” (Communications Biology, 2023)", "type_in_all_cases": "cell-based", "key": {"[1]": {"biological_target": "T1, TuGluCl3 (glutamate-gated chloride channel 3) (Tetranychus urticae, UniProt T1KFH0)", "T1 construct": "gene 107363680; homomeric WT TuGluCl3 receptor expressed in Xenopus laevis oocytes", "T1 sequence (T1KFH0 36-542)": "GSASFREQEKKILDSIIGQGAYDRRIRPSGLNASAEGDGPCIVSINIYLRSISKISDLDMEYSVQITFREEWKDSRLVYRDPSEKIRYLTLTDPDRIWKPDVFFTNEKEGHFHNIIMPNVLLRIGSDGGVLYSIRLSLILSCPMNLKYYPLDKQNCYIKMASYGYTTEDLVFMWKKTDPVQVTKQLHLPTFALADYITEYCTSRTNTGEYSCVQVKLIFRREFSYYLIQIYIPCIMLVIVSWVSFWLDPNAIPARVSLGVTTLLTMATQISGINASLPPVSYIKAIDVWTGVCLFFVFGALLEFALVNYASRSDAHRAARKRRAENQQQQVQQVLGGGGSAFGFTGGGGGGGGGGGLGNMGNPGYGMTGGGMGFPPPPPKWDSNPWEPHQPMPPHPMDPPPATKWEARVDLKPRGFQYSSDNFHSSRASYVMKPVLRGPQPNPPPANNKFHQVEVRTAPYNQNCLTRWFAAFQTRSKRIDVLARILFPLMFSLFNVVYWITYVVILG", "test": "two-electrode voltage clamp in Xenopus oocytes; agonist, also potentiates glutamate currents"}, "[2]": {"biological_target": "T1, TuGluCl3 (glutamate-gated chloride channel 3)", "test": "two-electrode voltage clamp in Xenopus oocytes at […] (natural agonist)"}, "[3]": {"biological_target": "T2, TuGluCl3 (glutamate-gated chloride channel 3) (Tetranychus urticae, UniProt T1KFH0, G326E)", "T2 construct": "gene 107363680; homomeric TuGluCl3 G326E receptor expressed in Xenopus laevis oocytes", "test": "two-electrode voltage clamp in Xenopus oocytes at […] (natural agonist)"}}}
{"molecule": "OC(c1ccc(Cl)cc1)(c1ccc(Cl)cc1)C(Cl)(Cl)Cl", "note": "[dicofol, 2,2,2-trichloro-1,1-bis(4-chlorophenyl)ethanol]", "values": [{"measurement": "EC50", "setting": "[1]", "value": 3.58, "unit": "µM"}]}
{"molecule": "CC(C)OC(=O)C(O)(c1ccc(Br)cc1)c1ccc(Br)cc1", "note": "[bromopropylate]", "values": [{"measurement": "EC50", "setting": "[1]", "value": 3.23, "unit": "µM"}]}
{"molecule": "N[C@@H](CCC(=O)O)C(=O)O", "note": "[L-glutamic acid]", "values": [{"measurement": "two-electrode voltage clamp in Xenopus oocytes at 500 μM (natural agonist)", "setting": "[2]", "value": "both TuGluCl3 receptors showed clear responses to L-Glu"}, {"measurement": "two-electrode voltage clamp in Xenopus oocytes at 500 μM (natural agonist)", "setting": "[3]", "value": "both TuGluCl3 receptors showed clear responses to L-Glu"}]}
{"molecule": "CCOC(=O)C(O)(c1ccc(Cl)cc1)c1ccc(Cl)cc1", "note": "[chlorobenzilate]", "values": [{"measurement": "EC50", "setting": "[1]", "value": 2.78, "unit": "µM"}]}
